Test results as given in patent US20240158370A1, “CK1 alpha AND DUAL CK1 alpha / GSPT1 DEGRADING COMPOUNDS” (Innovo Therapeutics, Inc., priority 2022, published 2024).

Tests used:
[1] = target: T1, CK1α (Homo sapiens, UniProt P48729+Q96SW2); test: HiBiT degradation assay, CK1α, Procedure A; assay type: cell-based; details: six hours
T1 construct: CSNK1A1-HiBit KI HEK293(LgBit) Cells; host or cells: HEK293(LgBit) knock-in cells
In short: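 Cells in DMEM + 10% FBS were treated with compound in a ten-point dose response from 10 μM to 0.005 μM (0.1% DMSO) for six hours at 37° C. Lysis with Nano-Glo HiBiT detection reagent followed, with luminescence read. DC50 and Ymin came from a 4-parameter fit.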

[2] = target: GSPT1 (Homo sapiens, UniProt P15170+Q96SW2); test: HiBiT degradation assay, GSPT1, Procedure B (Molt 4_hGSPT1_HiBIT cells); assay type: cell-based; parameters: Molt 4_hGSPT1_HiBIT N-terminus tagged cells were generated using CRISPR technology; endogenous in cells; host or cells: Molt 4 cells, CRISPR-edited; details: six hours
Method: Molt 4_hGSPT1_HiBIT N-terminus tagged cells were generated using CRISPR technology. Cells were maintained in RPMI media (Thermo Fisher Scientific, Catalog #11875-093) containing 10% Fetal Bovine Serum (Thermo Fisher Scientific, Catalog #16140071) 1% Penicillin-Streptomycin (Thermo Fisher Scientific, Catalog #25200056). Cells were maintained at 37° C. in a 5% CO2 environment.
Compounds were spotted onto Cornin 384-Well, Cell Culture-Treated, Flat-Bottom, Low Flange Microplate (Fisher Scientific, Catalog #07-201-013) using a Tecan D300e digital dispenser. Ten-point dose response curves spanning from 10 μM to 0.005 μM with a 0.1% DMSO tolerance were used.
Cells were centrifuged for 5 minutes at 1200 RPMs. Cell culture media was aspirated off and cells were resuspended with RPMI+10% FBS. Cell density was determined using a Denovix CellDrop BF cell counter. Cell density was adjusted to 1×10^6 cells/ml. 40 μl of cells was added to compound treated tissue culture plates and incubated for six hours at 37° C. After six hours, cell culture plates were removed from tissue culture incubator and cooled to room temperature. 40 μl of Nano-GloHiBiT Lytic Detection Reagent (Promega, Catalog #N3040) was added to each well. Plates were placed on an orbital shaker (600 rpm) for 20 minutes. Luminescence was measured using an Envsion plate reader (Perkin Elmer). IC50 curves and Ymin were generated using a 4-parameter curve fit with GraphPad Prism software (Prism Corporation).
Results from the HiBiT assay (DC50 (nM) and Ymin (% remaining)) are shown below. All CK1α data was generated according to Procedure A. GSPT1 data for Examples 1-600, 603-620 and 703-705 was generated according to Procedure A. GSPT1 data for Examples 601, 621-702 and 706-735 was generated according to Procedure B.

T1 sequence (P48729 whole entry): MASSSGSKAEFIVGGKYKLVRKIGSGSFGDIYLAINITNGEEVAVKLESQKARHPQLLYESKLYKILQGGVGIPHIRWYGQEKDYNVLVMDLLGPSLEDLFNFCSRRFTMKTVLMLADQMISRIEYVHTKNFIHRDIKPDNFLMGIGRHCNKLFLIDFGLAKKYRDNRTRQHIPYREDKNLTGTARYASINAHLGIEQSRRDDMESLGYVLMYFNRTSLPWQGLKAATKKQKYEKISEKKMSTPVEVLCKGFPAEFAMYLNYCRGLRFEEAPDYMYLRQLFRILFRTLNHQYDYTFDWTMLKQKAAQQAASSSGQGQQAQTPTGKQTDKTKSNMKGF
T1 sequence (Q96SW2 whole entry): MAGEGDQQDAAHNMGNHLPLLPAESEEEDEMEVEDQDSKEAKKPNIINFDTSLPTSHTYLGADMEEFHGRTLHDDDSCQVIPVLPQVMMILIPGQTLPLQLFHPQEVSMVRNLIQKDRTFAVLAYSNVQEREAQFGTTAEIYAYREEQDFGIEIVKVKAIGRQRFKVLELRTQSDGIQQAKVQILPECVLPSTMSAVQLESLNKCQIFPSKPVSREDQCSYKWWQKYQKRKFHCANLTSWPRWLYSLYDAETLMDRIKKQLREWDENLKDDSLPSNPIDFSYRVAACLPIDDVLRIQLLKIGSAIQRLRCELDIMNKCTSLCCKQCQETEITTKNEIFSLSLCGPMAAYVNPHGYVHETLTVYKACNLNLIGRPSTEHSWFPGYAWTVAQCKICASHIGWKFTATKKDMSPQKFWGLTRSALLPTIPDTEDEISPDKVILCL
T1 sequence (Q16531 whole entry partner): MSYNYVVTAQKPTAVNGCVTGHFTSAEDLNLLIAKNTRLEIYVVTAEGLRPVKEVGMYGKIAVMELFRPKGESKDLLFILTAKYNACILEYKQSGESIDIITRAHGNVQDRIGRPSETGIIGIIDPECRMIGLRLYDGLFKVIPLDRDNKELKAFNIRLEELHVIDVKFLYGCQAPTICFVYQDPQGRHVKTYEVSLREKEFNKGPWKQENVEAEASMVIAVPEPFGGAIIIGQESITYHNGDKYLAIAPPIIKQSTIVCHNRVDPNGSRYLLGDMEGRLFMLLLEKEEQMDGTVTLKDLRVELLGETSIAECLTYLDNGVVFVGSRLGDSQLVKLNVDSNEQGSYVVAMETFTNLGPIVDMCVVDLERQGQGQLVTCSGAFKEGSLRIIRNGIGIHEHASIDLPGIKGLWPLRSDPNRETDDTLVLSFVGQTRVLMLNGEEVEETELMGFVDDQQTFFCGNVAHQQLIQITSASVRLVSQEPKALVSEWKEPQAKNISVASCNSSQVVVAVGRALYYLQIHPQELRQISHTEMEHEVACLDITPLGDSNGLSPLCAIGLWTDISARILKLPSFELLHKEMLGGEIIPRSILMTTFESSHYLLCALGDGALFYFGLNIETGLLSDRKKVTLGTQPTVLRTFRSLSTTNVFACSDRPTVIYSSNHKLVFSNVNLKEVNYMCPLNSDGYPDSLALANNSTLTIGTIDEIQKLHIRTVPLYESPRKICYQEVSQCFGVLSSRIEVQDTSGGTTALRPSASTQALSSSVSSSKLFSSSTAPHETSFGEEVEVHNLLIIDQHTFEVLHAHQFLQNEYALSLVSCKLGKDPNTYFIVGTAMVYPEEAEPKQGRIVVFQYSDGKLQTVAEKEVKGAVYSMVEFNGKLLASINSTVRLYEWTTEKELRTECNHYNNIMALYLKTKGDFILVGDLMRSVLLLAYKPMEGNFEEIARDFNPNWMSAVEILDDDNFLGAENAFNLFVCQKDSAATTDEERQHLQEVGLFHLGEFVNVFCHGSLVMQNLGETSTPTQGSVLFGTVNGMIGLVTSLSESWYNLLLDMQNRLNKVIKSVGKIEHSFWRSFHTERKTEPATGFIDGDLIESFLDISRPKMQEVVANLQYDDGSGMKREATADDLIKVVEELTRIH
GSPT1, sequence (P15170 whole entry): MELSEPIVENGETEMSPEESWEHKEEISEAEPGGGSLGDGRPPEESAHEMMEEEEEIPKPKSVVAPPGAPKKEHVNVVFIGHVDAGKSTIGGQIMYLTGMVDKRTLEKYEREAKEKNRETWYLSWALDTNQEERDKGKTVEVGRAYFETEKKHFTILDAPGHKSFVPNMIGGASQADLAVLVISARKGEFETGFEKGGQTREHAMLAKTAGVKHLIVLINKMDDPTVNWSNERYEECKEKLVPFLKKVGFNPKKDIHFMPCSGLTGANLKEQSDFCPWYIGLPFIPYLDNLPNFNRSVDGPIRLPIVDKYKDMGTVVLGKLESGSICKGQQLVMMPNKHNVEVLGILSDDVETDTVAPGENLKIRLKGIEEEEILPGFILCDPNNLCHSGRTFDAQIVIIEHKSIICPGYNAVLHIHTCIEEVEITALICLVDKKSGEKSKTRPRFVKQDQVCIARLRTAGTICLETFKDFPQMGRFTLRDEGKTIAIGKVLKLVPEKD
GSPT1, sequence (Q96SW2 whole entry): as the sequence (Q96SW2 whole entry) above
GSPT1, sequence (Q16531 whole entry partner): as the sequence (Q16531 whole entry partner) above

Compound | CK1α Ymin [1] | DC50 [1] | DC50 [2] | GSPT1 Ymin [2]
Cn1cc(-c2ccc3c(c2)CN(C2CCC(=O)NC2=O)C3=O)nc1-c1cccc(F)c1 (stereo not drawn) [Example 631] | C (C = 0-10% remaining) | < 25 nM | ≥ 25 nM | F (F = >75-100% remaining)
Cn1cc(-c2ccc3c(c2)CN(C2CCC(=O)NC2=O)C3=O)nc1-c1cccc(C#N)c1 (stereo not drawn) [Example 632] | D (D = >10- 25% remaining) | < 25 nM | ≥ 25 nM | F (F = >75-100% remaining)
Cn1cc(-c2ccc3c(c2)CN(C2CCC(=O)NC2=O)C3=O)nc1-c1ccc(C#N)cc1 (stereo not drawn) [Example 633] | D (D = >10- 25% remaining) | < 25 nM | < 25 nM | F (F = >75-100% remaining)
Cn1cc(-c2ccc3c(c2)CN(C2CCC(=O)NC2=O)C3=O)nc1-c1ccccc1N (stereo not drawn) [Example 634] | C (C = 0-10% remaining) | < 25 nM | ≥ 25 nM | E (E = >25-75% remaining)
Cn1cc(-c2ccc3c(c2)CN(C2CCC(=O)NC2=O)C3=O)nc1-c1cccc(Cl)c1 (stereo not drawn) [Example 635] | C (C = 0-10% remaining) | < 25 nM | ≥ 25 nM | F (F = >75-100% remaining)
Cn1cc(-c2ccc3c(c2)CN(C2CCC(=O)NC2=O)C3=O)nc1-c1cccc(CO)c1 (stereo not drawn) [Example 636] | C (C = 0-10% remaining) | ≥ 25 nM | ≥ 25 nM | F (F = >75-100% remaining)
Cn1cc(-c2ccc3c(c2)CN(C2CCC(=O)NC2=O)C3=O)nc1-c1cccc(OC(F)(F)F)c1 (stereo not drawn) [Example 637] | D (D = >10- 25% remaining) | < 25 nM | < 25 nM | F (F = >75-100% remaining)
COc1cc(Cl)ccc1-c1nc(-c2ccc3c(c2)CN(C2CCC(=O)NC2=O)C3=O)cn1C (stereo not drawn) [Example 638] | C (C = 0-10% remaining) | < 25 nM | < 25 nM | F (F = >75-100% remaining)
Cn1cc(-c2ccc3c(c2)CN(C2CCC(=O)NC2=O)C3=O)nc1-c1ccccc1Cl (stereo not drawn) [Example 639] | C (C = 0-10% remaining) | < 25 nM | ≥ 25 nM | E (E = >25-75% remaining)
Cc1ccc(Cl)cc1-c1nc(-c2ccc3c(c2)CN(C2CCC(=O)NC2=O)C3=O)cn1C (stereo not drawn) [Example 640] | C (C = 0-10% remaining) | < 25 nM | ≥ 25 nM | F (F = >75-100% remaining)
Cn1cc(-c2ccc3c(c2)CN(C2CCC(=O)NC2=O)C3=O)nc1-c1cccc(F)c1C#N (stereo not drawn) [Example 641] | C (C = 0-10% remaining) | < 25 nM | ≥ 25 nM | F (F = >75-100% remaining)
Cn1cc(-c2ccc3c(c2)CN(C2CCC(=O)NC2=O)C3=O)nc1-c1cccc(O)c1 (stereo not drawn) [Example 642] | C (C = 0-10% remaining) | ≥ 25 nM | < 25 nM | E (E = >25-75% remaining)
COc1ccc(Cl)cc1-c1nc(-c2ccc3c(c2)CN(C2CCC(=O)NC2=O)C3=O)cn1C (stereo not drawn) [Example 643] | D (D = >10- 25% remaining) | < 25 nM | ≥ 25 nM | F (F = >75-100% remaining)
Cn1cc(-c2ccc3c(c2)CN(C2CCC(=O)NC2=O)C3=O)nc1-c1ccc(Cl)cc1F (stereo not drawn) [Example 644] | D (D = >10- 25% remaining) | < 25 nM | ≥ 25 nM | F (F = >75-100% remaining)
Cn1cc(-c2ccc3c(c2)CN(C2CCC(=O)NC2=O)C3=O)nc1-c1ccc(F)c(Cl)c1 (stereo not drawn) [Example 645] | D (D = >10- 25% remaining) | < 25 nM | ≥ 25 nM | F (F = >75-100% remaining)
Cn1cc(-c2ccc3c(c2)CN(C2CCC(=O)NC2=O)C3=O)nc1-c1cccs1 (stereo not drawn) [Example 646] | C (C = 0-10% remaining) | < 25 nM | ≥ 25 nM | F (F = >75-100% remaining)
Cn1cc(-c2ccc3c(c2)CN(C2CCC(=O)NC2=O)C3=O)nc1-c1ccc(F)cc1Cl (stereo not drawn) [Example 647] | D (D = >10- 25% remaining) | < 25 nM | ≥ 25 nM | F (F = >75-100% remaining)
Cc1ccc(-c2nc(-c3ccc4c(c3)CN(C3CCC(=O)NC3=O)C4=O)cn2C)c(Cl)c1 (stereo not drawn) [Example 648] | D (D = >10- 25% remaining) | < 25 nM | < 25 nM | F (F = >75-100% remaining)
Cn1cc(-c2ccc3c(c2)CN(C2CCC(=O)NC2=O)C3=O)nc1-c1ccccc1C(F)(F)F (stereo not drawn) [Example 649] | D (D = >10- 25% remaining) | < 25 nM | < 25 nM | E (E = >25-75% remaining)
Cc1cccc(-c2nc(-c3ccc4c(c3)CN(C3CCC(=O)NC3=O)C4=O)cn2C)c1C (stereo not drawn) [Example 650] | D (D = >10- 25% remaining) | < 25 nM | < 25 nM | F (F = >75-100% remaining)
Cc1cccc(F)c1-c1nc(-c2ccc3c(c2)CN(C2CCC(=O)NC2=O)C3=O)cn1C (stereo not drawn) [Example 651] | D (D = >10- 25% remaining) | < 25 nM | < 25 nM | E (E = >25-75% remaining)
Cn1cc(-c2ccc3c(c2)CN(C2CCC(=O)NC2=O)C3=O)nc1-c1ccc2ccccc2c1 (stereo not drawn) [Example 652] | D (D = >10- 25% remaining) | < 25 nM | < 25 nM | F (F = >75-100% remaining)
Cn1cc(-c2ccc3c(c2)CN(C2CCC(=O)NC2=O)C3=O)nc1-c1ccc(F)cc1F (stereo not drawn) [Example 653] | D (D = >10- 25% remaining) | < 25 nM | ≥ 25 nM | F (F = >75-100% remaining)
Cn1cc(-c2ccc3c(c2)CN(C2CCC(=O)NC2=O)C3=O)nc1-c1ccc(C#N)cc1F (stereo not drawn) [Example 654] | D (D = >10- 25% remaining) | < 25 nM | < 25 nM | F (F = >75-100% remaining)
Cn1cc(-c2ccc3c(c2)CN(C2CCC(=O)NC2=O)C3=O)nc1-c1ccc(C#N)c(F)c1 (stereo not drawn) [Example 655] | E (E = >25-75% remaining) | < 25 nM | ≥ 25 nM | F (F = >75-100% remaining)
Cn1cc(-c2ccc3c(c2)CN(C2CCC(=O)NC2=O)C3=O)nc1-c1ccccc1F (stereo not drawn) [Example 656] | E (E = >25-75% remaining) | < 25 nM | ≥ 25 nM | F (F = >75-100% remaining)
Cn1cc(-c2ccc3c(c2)CN(C2CCC(=O)NC2=O)C3=O)nc1-c1ccc(CO)cc1 (stereo not drawn) [Example 657] | D (D = >10- 25% remaining) | < 25 nM | ≥ 25 nM | F (F = >75-100% remaining)
